How the values were obtained:
Assay in all cases: MIC determination, agar dilution
Type in all cases: cell-based
Lactobacillus crispatus = conditions: non-reference strain
Lactobacillus gasseri = conditions: each identified strain
Lactobacillus iners = conditions: each identified strain
Lactobacillus jensenii = conditions: each identified strain
Lactobacillus vaginalis = conditions: Limosilactobacillus vaginalis; each identified strain
Mobiluncus curtisii = conditions: each identified strain

MIC (Lactobacillus gasseri): > 150 mg/L
MIC (Lactobacillus iners): > 150 mg/L
MIC (Lactobacillus jensenii): > 150 mg/L
MIC (Lactobacillus vaginalis): > 150 mg/L
MIC (Mobiluncus curtisii): > 150 mg/L
SMILES: CCS(=O)(=O)CCn1c([N+](=O)[O-])cnc1C [tinidazole]
growth inhibition at the highest concentration tested (Lactobacillus crispatus): unaffected

— patent publication US9446024B2, “Formulations for the treatment of vaginal disorders” (Mission Pharmacal Company, priority 2013, dated 2016)
